Measurements taken from US12329753B2, “Phosphodiesterase inhibitor treatment” (Cyrano Therapeutics, Inc., priority 2008, dated 2025).
Marks after values point to notes of the source that are not given here.

Columns and labels:
patients with hyposmia [1] = test: Hedonic (H) value of odors, -100-0-+100 scale, open trial of oral theophylline; format: in vivo, human
Method: In addition, each patient graded the hedonic (H) value of each odor presented for these same odor concentrations (from 10^−2M—an absolute odor concentration using a −100-0-+100 scale). […] Results were obtained by calculating the arithmetical sum of each correct recognition response for each odor with respect to its pleasantness, unpleasantness or neutrality. Arithmetic M±SEM were obtained for each treatment group for each odor presented.
After determination of hyposmia, patients were treated in an open label, fixed design, controlled open trial. Patients were given an oral extended release theophylline in divided daily doses taken in the middle of breakfast and lunch. All patients were initially given 200 mg of theophylline; changes in this dose were made based upon subjective responses to therapy. If at a subsequent return visit, patients reported ≥5% subjective improvement in overall smell function, they continued on this same dose of theophylline and were reevaluated after four to six months of continued treatment. Results from any subsequent return from these improved patients were not included in any subsequent data report. All subsequent comparisons between treated and untreated patients were made only between those patients continuing in the study compared to their own measurements obtained in the untreated state. If patients reported <5% subjective improvement, their theophylline dose was increased by 200 mg daily and they were scheduled for retesting at the study site after two to four months at this new dosage. For patients that reported <5% improvement, this sequence continued until patients reached 800 mg of theophylline, at which time the study was considered completed.
Patients returned for reevaluation after two to four months of treatment. Measurements of blood serum theophylline were measured by a fluorescence polarization assay (Abbott, Chicago, IL). At this time, subjective changes in smell function were measured independently (compared to patient's memory of previous normal smell function monitored by use of the patients' daily measurements) using the scale from −100-0-+100 previously described (vs). After independently recording their subjective responses, smell function was measured for all four odors with DT, RT, ME and H determined without recourse to prior measurements.

[2] = asthma therapy; cited from earlier work
total PDE activity = settings: human lung extracts; therapeutic concentrations; cited from earlier work
patients with hyposmia [3] = test: Side effects of intranasal theophylline; format: in vivo, human; settings: intranasal 20 μg per naris once a day
Method: The patients inserted a plastic syringe containing 0.4 ml of fluid (20 μg theophylline) into each naris once a day. […] The drug dose was delivered through a plastic nipple which fitted snugly onto the filled syringe which was attached directly to the nipple. One nipple was supplied for each set of two syringes in each application kit. The patient fitted the nipple on one syringe, placed the nipple securely into the lower naris and injected the contents of the syringe directly into the lower vault of one naris accompanied by a modest inhalation. This technique was then used for the second syringe used for the other naris. The patients were instructed to administer the drug either seated or standing with their head in an erect, vertical position.

cAMP = test: Parotid saliva cAMP, 96 plate spectrophotometric assay; format: in vivo, human
Method: Parotid saliva was collected from each patient by application of a Lashley cup over Stensen's duct with lingual stimulation by placement of concentrated lemon juice. Saliva was collected in plastic tubes and stored at −20° C. until assayed. cAMP and cGMP were measured in saliva by a sensitive 96 plate spectrophotometric assay (R&D Systems, Minneapolis, MN).
All patients were placed in a fixed design open label clinical trial with treatment with oral theophylline. Treatment consisted of fixed treatment periods of two-eight months with sequential doses of the drug at 200 mg, 400 mg and 600 mg. At termination of each of these intervals, patients returned to study site for reevaluation. At the end of each interval subjective responses to treatment were measured with a modification of the 0-100 scale previously used (vs). […] Theophylline was assayed by a fluorescence polarization assay (Abbott, Chicago, IL), as previously described.
Data for the cyclic nucleotides from these 31 patients was not analyzed until the entire study of the 312 patients in Example 1 was assembled and analyzed in its entirety. […] The two patient groups were also analyzed post hoc with respect to type of smell loss and etiology of smell loss.

[4] = oral 400 mg daily, 2-6 months, all patients (120), mean ± SEM
[5] = oral 600 mg daily, 2-12 months, all patients (160), mean ± SEM
[6] = oral 800 mg daily, 2-12 months, all patients (28), mean ± SEM
[7] = oral 800 mg, Type I hyposmia (12), mean ± SEM

**Q.** Which results are given for `Cn1c(=O)c2[nH]cnc2n(C)c1=O` [theophylline]?
**A.** increase in H, amyl acetate (patients with hyposmia [1]; oral 200 mg): 2%; increase in H, nitrobenzene (patients with hyposmia [1]; oral 200 mg): 2%; increase of H value, amyl acetate (patients with hyposmia [1]; oral 200 mg, not statistically significant): 50%; change in H (more pleasant), amyl acetate (patients with hyposmia [1]; oral 400 mg): 1%; change in H (more pleasant), nitrobenzene (patients with hyposmia [1]; oral 400 mg): 4%; change in H, pyridine (patients with hyposmia [1]; oral 400 mg): 9%; change in H, thiophene (patients with hyposmia [1]; oral 400 mg): 7%; decrease of H value, thiophene (patients with hyposmia [1]; oral 400 mg): 40%; hedonic estimation (H), amyl acetate (patients with hyposmia [1]; [4]): 3 ± 2^ %; hedonic estimation (H), nitrobenzene (patients with hyposmia [1]; [4]): 8 ± 3^a %; hedonic estimation (H), pyridine (patients with hyposmia [1]; [4]): −26 ± 3^b %; hedonic estimation (H), thiophene (patients with hyposmia [1]; [4]): −19 ± 2^d %; increase of H value, nitrobenzene (patients with hyposmia [1]; oral 400 mg, not statistically significant): 50%; hedonic estimation (H), amyl acetate (patients with hyposmia [1]; [5]): 4 ± 1%; hedonic estimation (H), nitrobenzene (patients with hyposmia [1]; [5]): 8 ± 2^d %; hedonic estimation (H), pyridine (patients with hyposmia [1]; [5]): −19 ± 2 ^ %; hedonic estimation (H), thiophene (patients with hyposmia [1]; [5]): −14 ± 2 ^ %; decrease of H value, pyridine (patients with hyposmia [1]; oral 800 mg): 55%; decrease of H value, thiophene (patients with hyposmia [1]; oral 800 mg): 37%; increase of H value, amyl acetate (patients with hyposmia [1]; oral 800 mg): about 50%; increase of H value, nitrobenzene (patients with hyposmia [1]; oral 800 mg): about 50%; hedonic estimation (H), amyl acetate (patients with hyposmia [1]; [6]): 8 ± 5%; hedonic estimation (H), nitrobenzene (patients with hyposmia [1]; [6]): 13 ± 7 ^ %; hedonic estimation (H), pyridine (patients with hyposmia [1]; [6]): −22 ± 6%; hedonic estimation (H), thiophene (patients with hyposmia [1]; [6]): −15 ± 4%; hedonic value (row printed R), amyl acetate (patients with hyposmia [1]; [7]): −1 ± 4 ^ %; hedonic value (row printed R), nitrobenzene (patients with hyposmia [1]; [7]): 2 ± 2^a %; hedonic value (row printed R), pyridine (patients with hyposmia [1]; [7]): −11 ± 5^a %; hedonic value (row printed R), thiophene (patients with hyposmia [1]; [7]): −4 ± 2^a %; therapeutic range for plasma concentrations [2]: 10 to 20 mg/L; inhibition of total PDE activity (total PDE activity): 5 to 10%; side effects (patients with hyposmia [3]): no side effects; parotid saliva cAMP (cAMP; oral 400 mg, patients with improved smell function (12), mean ± SEM): 1.22 ± 0.33 pmol/mL; change of saliva cAMP (cAMP; oral 200, 400, 600 mg, unimproved patients): essentially no change
